From article PMC3349777 (2012) come the findings set out here.

SMILES strings stand for the structures.

The target in test [1] is Trypanosoma cruzi squalene synthase (TcSQS) (Trypanosoma cruzi, UniProt Q4CWB4). Description: enzyme inhibition assay, recombinant SQS. It is filed as biochemical.
Test [2] concerns the target T1, human squalene synthase (HsSQS) (Homo sapiens, UniProt P37268).
T1 sequence (P37268 1-417): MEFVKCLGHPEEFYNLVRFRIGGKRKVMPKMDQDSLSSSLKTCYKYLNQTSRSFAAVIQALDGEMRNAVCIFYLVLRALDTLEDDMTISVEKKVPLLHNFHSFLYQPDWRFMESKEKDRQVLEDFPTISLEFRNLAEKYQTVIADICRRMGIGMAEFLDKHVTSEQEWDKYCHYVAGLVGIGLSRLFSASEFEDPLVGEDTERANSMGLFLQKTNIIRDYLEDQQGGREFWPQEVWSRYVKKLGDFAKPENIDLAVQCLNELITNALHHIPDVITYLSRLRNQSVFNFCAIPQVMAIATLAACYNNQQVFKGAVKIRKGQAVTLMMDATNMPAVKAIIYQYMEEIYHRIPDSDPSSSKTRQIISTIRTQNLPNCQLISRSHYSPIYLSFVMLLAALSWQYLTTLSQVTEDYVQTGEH
As to the kind of experiment: enzyme inhibition assay, recombinant SQS. It is filed as biochemical.

What is called Ki is the equilibrium dissociation constant of an inhibitor or competing ligand from its target. Consider `CC(C)=CCC/C(C)=C\CNCCNC1C2CC3CC(C2)CC1C3` (centres unmarked) [compound 3, SQ-109], for which the figures for the Ki in test [1] and in test [2] were 1200 nM and 740 nM, respectively.
